Article PMC4355294, “The Ingenious Structure of Central Rotor Apparatus in VoV1; Key for Both Complex Disassembly and Energy Coupling between V1 and Vo” (PLoS ONE, 2015)

Experiments:
V1-E.h-DF = system: T1, V1-E.h-DF; assay: enzyme-coupled ATP regenerating ATPase assay, Michaelis-Menten fit; type: biochemical, Thermus thermophilus; conditions: 25°C; isolated V1
T1 construct: gene atpA
Description: enzyme-coupled ATP regenerating ATPase assay, Michaelis-Menten fit on V1-E.h-DF

V1-H.s-DF = system: T2, V1-H.s-DF; assay: as above; type: biochemical, Thermus thermophilus; conditions: 25°C; isolated V1
T2 construct: gene atpA
Description: enzyme-coupled ATP regenerating ATPase assay, Michaelis-Menten fit on V1-H.s-DF

For `Nc1ncnc2c1ncn2[C@@H]1O[C@H](COP(=O)(O)OP(=O)(O)OP(=O)(O)O)[C@@H](O)[C@H]1O` [ATP], the Km (V1-E.h-DF) was 760 ± 40 µM and the Km (V1-H.s-DF) was 480 ± 40 µM.
